Series [1] addresses Cholinesterase (Equus caballus) (UniProt P81908). In words: Inhibition of equine serum BuChE at 10 uM preincubated for 5 mins followed by butyrylthiocholine iodide substrate addition measured after 5 mins by Ellman's method relative to control. (DTNB colorimetry detects thiols as they appear.)
Series [2] has as its target 5-hydroxytryptamine receptor 6 (Homo sapiens, UniProt P50406). In words: biochemical.
Description: Displacement of [3H]-LSD from human recombinant 5-HT6 receptor expressed in CHOK1 cell membranes measured after 60 mins by scintillation counter
For series [3], the target named is Cholinesterase (Equus caballus, UniProt P81908).
Cholinesterase (Equus caballus, UniProt P81908), sequence (P81908 whole entry): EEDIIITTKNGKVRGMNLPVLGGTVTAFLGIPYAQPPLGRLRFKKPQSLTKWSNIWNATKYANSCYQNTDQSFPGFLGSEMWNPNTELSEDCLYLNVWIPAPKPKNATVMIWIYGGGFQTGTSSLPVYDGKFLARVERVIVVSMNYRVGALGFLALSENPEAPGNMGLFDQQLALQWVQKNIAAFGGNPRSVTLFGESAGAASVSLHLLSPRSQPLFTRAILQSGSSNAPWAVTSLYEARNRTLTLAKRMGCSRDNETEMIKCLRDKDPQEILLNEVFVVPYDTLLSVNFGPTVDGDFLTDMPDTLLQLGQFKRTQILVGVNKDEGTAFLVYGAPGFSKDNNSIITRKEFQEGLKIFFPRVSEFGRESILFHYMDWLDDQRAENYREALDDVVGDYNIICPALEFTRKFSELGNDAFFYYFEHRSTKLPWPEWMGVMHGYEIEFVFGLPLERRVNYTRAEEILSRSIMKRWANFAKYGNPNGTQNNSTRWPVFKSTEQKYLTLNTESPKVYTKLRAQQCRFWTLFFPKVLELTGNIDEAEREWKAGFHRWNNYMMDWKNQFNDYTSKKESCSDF
Description: Inhibition of equine serum BuChE preincubated for 5 mins followed by butyrylthiocholine iodide substrate addition measured after 5 mins by Ellman's method
Series [4] concerns the target Acetylcholinesterase (Electrophorus electricus, UniProt O42275).
Description: Inhibition of electric eel AChE preincubated for 5 mins followed by acetylthiocholine iodide substrate addition measured after 5 mins by Ellman's method
Series [5] addresses Acetylcholinesterase (Homo sapiens, UniProt P22303). In words: Inhibition of human recombinant AChE preincubated for 5 mins followed by acetylthiocholine iodide substrate addition measured after 5 mins by Ellman's method.
A short description of series [6]: Reduction of spontaneous locomotor activity below baseline in Wistar rat at 10 mg/kg, ip in presence of scopolamine by open field assay. The series is classed as ADME, organism-based. As to conditions: in vivo.
Series [7] relates to Rattus norvegicus. In words: Reduction in spontaneous locomotor activity in Wistar rat at 10 mg/kg, ip pretreated for 30 to 180 mins by open field assay. Format: functional, organism-based.
The subject of series [8] is Rattus norvegicus. Kind of series: Reduction in spontaneous locomotor activity in ip dosed Wistar rat pretreated for 30 mins by open field assay. Format: functional, organism-based.
Series [9] has as its target Acetylcholinesterase (Electrophorus electricus) (UniProt O42275). In words: Non-competitive inhibition of electric eel AChE at 30 to 120 nM using varying levels of acetylthiocholine iodide substrate preincubated for 5 mins followed by substrate addition measured after 5 mins by Line-weaver burk plot method.
For series [10], the target named is Cholinesterase (Equus caballus) (UniProt P81908). As to conditions: 9 to 30 nM.
Cholinesterase (Equus caballus), sequence (P81908 whole entry): as above
For series [11], the system named is Rattus norvegicus. Kind of series: Reversal of scopolamine-induced hyperlocomotion in ip dosed Wistar rat. The series is classed as functional, organism-based.
Series [12] deals with Cholinesterase (Homo sapiens, UniProt P06276). In words: Inhibition of human recombinant BuChE preincubated for 5 mins followed by butyrylthiocholine iodide substrate addition measured after 5 mins by Ellman's method.
Cholinesterase (Homo sapiens, UniProt P06276), sequence (P06276 whole entry): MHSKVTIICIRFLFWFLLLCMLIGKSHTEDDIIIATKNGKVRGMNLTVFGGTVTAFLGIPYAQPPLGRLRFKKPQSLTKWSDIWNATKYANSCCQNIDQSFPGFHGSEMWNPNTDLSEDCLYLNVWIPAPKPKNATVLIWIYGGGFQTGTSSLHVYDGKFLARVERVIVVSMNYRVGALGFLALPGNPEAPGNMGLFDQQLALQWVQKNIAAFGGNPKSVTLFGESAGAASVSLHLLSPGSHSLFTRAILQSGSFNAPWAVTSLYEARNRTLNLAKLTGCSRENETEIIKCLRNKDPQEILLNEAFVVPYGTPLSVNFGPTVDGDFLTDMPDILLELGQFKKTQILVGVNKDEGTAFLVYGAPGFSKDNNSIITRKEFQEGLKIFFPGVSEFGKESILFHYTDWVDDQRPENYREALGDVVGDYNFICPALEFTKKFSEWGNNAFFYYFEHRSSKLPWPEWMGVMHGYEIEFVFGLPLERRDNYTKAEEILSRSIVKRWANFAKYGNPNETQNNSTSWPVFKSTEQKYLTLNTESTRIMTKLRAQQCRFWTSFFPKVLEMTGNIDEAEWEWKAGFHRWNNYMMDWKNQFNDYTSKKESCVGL
The conditions of series [13]: PAMPA, 2 h. For orientation: PAMPA measures passive passage across an artificial lipid membrane.

Calls of active or inactive are those of the source. No cut-off for these calls is given here.

Acetylcholinesterase (Homo sapiens, UniProt P22303), sequence (P22303 whole entry): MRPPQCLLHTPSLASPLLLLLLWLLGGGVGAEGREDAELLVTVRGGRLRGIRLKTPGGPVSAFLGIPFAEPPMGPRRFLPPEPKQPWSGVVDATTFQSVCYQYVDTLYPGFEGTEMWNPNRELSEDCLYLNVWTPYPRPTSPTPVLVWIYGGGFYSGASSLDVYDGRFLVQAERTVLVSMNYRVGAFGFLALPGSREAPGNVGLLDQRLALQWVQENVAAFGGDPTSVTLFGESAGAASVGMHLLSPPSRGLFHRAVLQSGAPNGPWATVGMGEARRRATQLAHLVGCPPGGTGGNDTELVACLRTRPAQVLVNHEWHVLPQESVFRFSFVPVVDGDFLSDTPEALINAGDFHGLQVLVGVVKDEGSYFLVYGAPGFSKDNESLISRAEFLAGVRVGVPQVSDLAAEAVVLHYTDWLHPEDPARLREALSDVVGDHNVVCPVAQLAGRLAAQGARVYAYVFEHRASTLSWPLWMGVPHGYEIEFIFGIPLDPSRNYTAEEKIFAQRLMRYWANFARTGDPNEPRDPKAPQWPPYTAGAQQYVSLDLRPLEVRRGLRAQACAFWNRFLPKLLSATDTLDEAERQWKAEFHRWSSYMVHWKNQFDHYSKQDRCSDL
Acetylcholinesterase (Electrophorus electricus, UniProt O42275), sequence (O42275 whole entry): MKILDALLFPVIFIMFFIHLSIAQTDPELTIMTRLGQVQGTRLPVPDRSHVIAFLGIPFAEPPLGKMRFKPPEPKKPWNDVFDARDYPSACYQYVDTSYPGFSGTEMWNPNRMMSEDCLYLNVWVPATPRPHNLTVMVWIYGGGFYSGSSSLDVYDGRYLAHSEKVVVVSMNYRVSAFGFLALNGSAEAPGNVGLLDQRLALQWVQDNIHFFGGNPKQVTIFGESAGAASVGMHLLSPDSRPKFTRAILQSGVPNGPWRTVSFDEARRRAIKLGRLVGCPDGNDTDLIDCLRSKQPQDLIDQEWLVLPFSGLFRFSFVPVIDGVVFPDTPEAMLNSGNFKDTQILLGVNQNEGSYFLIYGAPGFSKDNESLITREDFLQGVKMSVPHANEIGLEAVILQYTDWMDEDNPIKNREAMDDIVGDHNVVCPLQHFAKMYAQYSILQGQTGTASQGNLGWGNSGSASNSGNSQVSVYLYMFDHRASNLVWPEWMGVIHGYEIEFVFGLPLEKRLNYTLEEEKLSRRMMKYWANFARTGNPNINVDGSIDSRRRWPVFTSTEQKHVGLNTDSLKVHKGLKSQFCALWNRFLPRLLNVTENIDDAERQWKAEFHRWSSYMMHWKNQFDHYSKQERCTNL
5-hydroxytryptamine receptor 6, sequence (P50406 whole entry): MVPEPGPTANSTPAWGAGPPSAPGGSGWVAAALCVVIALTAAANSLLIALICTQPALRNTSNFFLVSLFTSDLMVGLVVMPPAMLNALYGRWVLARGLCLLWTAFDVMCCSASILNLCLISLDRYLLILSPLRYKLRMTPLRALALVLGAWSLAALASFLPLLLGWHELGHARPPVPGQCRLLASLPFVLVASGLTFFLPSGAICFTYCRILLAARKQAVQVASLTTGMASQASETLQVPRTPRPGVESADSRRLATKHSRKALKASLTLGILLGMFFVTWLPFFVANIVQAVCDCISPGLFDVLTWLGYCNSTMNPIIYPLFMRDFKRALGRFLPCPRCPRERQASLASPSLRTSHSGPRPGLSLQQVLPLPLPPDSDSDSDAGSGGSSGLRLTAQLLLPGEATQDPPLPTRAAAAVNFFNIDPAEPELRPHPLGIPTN
Acetylcholinesterase (Electrophorus electricus), sequence (O42275 24-633 limits assumed): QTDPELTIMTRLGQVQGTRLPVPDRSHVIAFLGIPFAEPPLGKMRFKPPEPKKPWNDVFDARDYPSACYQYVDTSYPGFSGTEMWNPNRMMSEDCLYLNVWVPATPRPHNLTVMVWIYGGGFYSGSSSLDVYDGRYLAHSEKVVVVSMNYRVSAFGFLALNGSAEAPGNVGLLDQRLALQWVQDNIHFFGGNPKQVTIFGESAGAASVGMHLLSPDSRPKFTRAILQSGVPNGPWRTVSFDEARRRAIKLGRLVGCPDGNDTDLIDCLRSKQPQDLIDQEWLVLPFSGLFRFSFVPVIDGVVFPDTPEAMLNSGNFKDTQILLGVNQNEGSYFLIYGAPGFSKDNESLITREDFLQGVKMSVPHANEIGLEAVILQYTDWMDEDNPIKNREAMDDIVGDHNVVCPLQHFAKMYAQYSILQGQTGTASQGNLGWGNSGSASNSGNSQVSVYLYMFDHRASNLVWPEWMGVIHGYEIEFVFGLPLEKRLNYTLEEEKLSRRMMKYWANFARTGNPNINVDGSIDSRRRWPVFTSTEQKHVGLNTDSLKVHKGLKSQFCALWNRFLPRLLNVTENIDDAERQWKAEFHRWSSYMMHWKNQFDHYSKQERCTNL

Usually inhibition stands for the change of the read-out against control, counted positive when it falls. Usually Ki stands for the dissociation constant of the complex between target and ligand, obtained from inhibition or displacement. Consider `CN(CCCN1CCN(c2cccc3c2ccn3S(=O)(=O)c2ccccc2)CC1)Cc1ccccc1`, for which, in [1], the inhibition was 27.8%. The same compound returned a Ki in [2] of 0.01 µM.
A word on the IC50: it is the midpoint of a concentration-inhibition curve. `O=S(=O)(c1ccccc1)n1ccc2c(N3CCN(CCNC4CCN(Cc5ccccc5)C4)CC3)cccc21` (stereo unspecified) came in with a Ki in series [2] of 0.013 µM. In addition, the IC50 in series [3] stood at 3.39 µM.
On the same counts, the results for `CN(CCCCN1CCN(c2cccc3c2ccn3S(=O)(=O)c2ccccc2)CC1)Cc1ccccc1` are 0.004 µM and 6.22 µM.
In the case of `O=S(=O)(c1ccccc1)n1ccc2c(N3CCN(CCNc4c5c(nc6ccccc46)CCCC5)CC3)cccc21`, the IC50 in series [4] was determined as 0.0075 µM; in series [5] it was 0.0436 µM; in series [3], 0.0168 µM. This compound returned a Ki in [2] of 0.01 µM.
In [2], `CN(CCN1CCN(c2cccc3c2ccn3S(=O)(=O)c2ccccc2)CC1)Cc1ccccc1` returned a Ki of 0.015 µM. Moreover, the IC50 in series [3] stood at 1.95 µM.
With `O=S(=O)(c1ccccc1)n1ccc2c(N3CCN(CCCCCNc4c5c(nc6ccccc46)CCCC5)CC3)cccc21`, the values for the IC50 in series [4], in series [5] and in series [3] were 0.057 µM, 0.0182 µM and 0.0213 µM, respectively. In series [2], this compound showed a Ki of 0.008 µM.
In [2], `O=S(=O)(c1ccccc1)n1ccc2c(N3CCN(CCCCNCc4ccccc4)CC3)cccc21` yielded a Ki of 0.008 µM. The compound further yielded an IC50 in series [3] of 2.21 µM.
Take `O=S(=O)(c1ccccc1)n1ccc2c(N3CCN(CCCCCCCCNc4c5c(nc6ccccc46)CCCC5)CC3)cccc21`: the IC50 is 0.0071 µM in series [4], 0.0013 µM in [5] and 0.0124 µM in [3]. The affinity in [2] corresponds to a Ki of 0.036 µM.
Taken in the same sequence, the figures for `O=S(=O)(c1ccccc1)n1ccc2c(N3CCN(CCCCCCCNc4c5c(nc6ccccc46)CCCC5)CC3)cccc21` were 0.0151 µM, 0.0062 µM, 0.01 µM and 0.036 µM.
For `O=S(=O)(c1ccccc1)n1ccc2c(N3CCN(CCCCCCNc4c5c(nc6ccccc46)CCCC5)CC3)cccc21`, the Activity result in [6] was “Non-Toxic”; in series [8], “Dose-dependent effect”; in series [11], “Dose-dependent effect”. In addition, the IC50 in [4] came out at 0.0459 µM; in series [5], 0.0129 µM; in series [3], 0.0082 µM; in series [12], 0.0297 µM. In addition, the result in series [7] was Active. Further, the inhibition entry in [9] and in [10] was “Active” throughout. The compound further returned a Ki in series [2] of 0.002 µM.
`O=S(=O)(c1ccccc1)n1ccc2c(N3CCN(CCCCCCNCc4ccccc4)CC3)cccc21` yielded a Ki in [2] of 0.002 µM. In [3], this compound registered an IC50 of 2.38 µM.
In the case of `CC(C)NCC(O)COc1cccc2ccccc12` (stereo unspecified) [PROPRANOLOL], in [13], the logPeff is on record as -3.7.
Turning to `O=S(=O)(c1ccccc1)n1ccc2c(N3CCN(CCCNCc4ccccc4)CC3)cccc21`, the Ki in [2] came to 0.016 µM. This compound also gave an IC50 in series [3] of 0.608 µM.
In [2], `O=S(=O)(c1ccccc1)n1ccc2c(N3CCN(CCNCc4ccccc4)CC3)cccc21` came in with a Ki of 0.012 µM. Half-maximal inhibition in series [3] (IC50) required 1.31 µM.
On to `O=S(=O)(c1ccccc1)n1ccc2c(N3CCNCC3)cccc21`, for which the inhibition in series [1] is 45.8%.
As for `CC(=O)[C@H]1CC[C@H]2[C@@H]3CCC4=CC(=O)CC[C@]4(C)[C@H]3CC[C@]12C` [PROGESTERONE], in series [13], the logPeff is recorded as -3.8.
`O=S(=O)(c1ccccc1)n1ccc2c(N3CCN(CCCNC4CCN(Cc5ccccc5)CC4)CC3)cccc21` showed a Ki in series [2] of 0.002 µM. The IC50 in series [3] stood at 3.22 µM.
`O=S(=O)(c1ccccc1)n1ccc2c(N3CCN(CCCCCNCc4ccccc4)CC3)cccc21`: the IC50 in series [4] amounted to 4.41 µM; in series [3], 1.67 µM. Further, the inhibition constant Ki in series [2] came to 0.008 µM.
For the compound `O=S(=O)(c1ccccc1)n1ccc2c(N3CCN(CCCCNC4CCN(Cc5ccccc5)CC4)CC3)cccc21`, the Ki in series [2] came to 0.016 µM. The IC50 in [3] turned out to be 2.16 µM.
On the same counts, the results for `O=S(=O)(c1ccccc1)n1ccc2c(N3CCN(CCNC4CCN(Cc5ccccc5)CC4)CC3)cccc21` are 0.039 µM and 10.6 µM.
Take `O=S(=O)(c1ccccc1)n1ccc2c(N3CCN(CCCNc4c5c(nc6ccccc46)CCCC5)CC3)cccc21`: the IC50 is 0.0121 µM in [4], 0.0097 µM in [5] and 0.0142 µM in [3]. This compound returned a Ki in series [2] of 0.006 µM.
Compound `CN(CCCCCN1CCN(c2cccc3c2ccn3S(=O)(=O)c2ccccc2)CC1)Cc1ccccc1` had a Ki in [2] of 0.01 µM. In series [3], the IC50 turned out to be 3.07 µM.

The values are drawn from ChEMBL document CHEMBL3875143, “Novel multi-target-directed ligands for Alzheimer's disease: Combining cholinesterase inhibitors and 5-HT6 receptor antagonists. Design, synthesis and biological evaluation” (Eur J Med Chem, 2016).
